Experimental data reported in PubChem BioAssay (NCI).
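Five concentrations, 48 hours, 96-well plates. Here, GI50 denotes the concentration required for 50% inhibition of growth. At the TGI there is no net growth.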

What was measured:
Assay in all cases: DTP human tumour cell line panel, 48 h
A498 renal = system: A498 renal
M14 melanoma = system: M14 melanoma
OVCAR-4 ovarian = system: OVCAR-4 ovarian
OVCAR-3 ovarian = system: OVCAR-3 ovarian
ACHN renal = system: ACHN renal
PC-3 prostate = system: PC-3 prostate
UACC-62 melanoma = system: UACC-62 melanoma
T-47D breast = system: T-47D breast
OVCAR-5 ovarian = system: OVCAR-5 ovarian
SK-MEL-28 melanoma = system: SK-MEL-28 melanoma
K-562 leukemia = system: K-562 leukemia
MOLT-4 leukemia = system: MOLT-4 leukemia
A549 NSCLC = system: A549 NSCLC
SW-620 colon = system: SW-620 colon
SN12C renal = system: SN12C renal
HS 578T breast = system: HS 578T breast
IGROV1 ovarian = system: IGROV1 ovarian
MCF7 breast = system: MCF7 breast
HCT-116 colon = system: HCT-116 colon
HOP-62 NSCLC = system: HOP-62 NSCLC
NCI-H522 lung = system: NCI-H522 lung
HOP-92 NSCLC = system: HOP-92 NSCLC
NCI-H460 lung = system: NCI-H460 lung
SK-MEL-5 melanoma = system: SK-MEL-5 melanoma
TK-10 renal = system: TK-10 renal
SF-268 CNS = system: SF-268 CNS
SF-295 CNS = system: SF-295 CNS
CCRF-CEM leukemia = system: CCRF-CEM leukemia
RPMI-8226 leukemia = system: RPMI-8226 leukemia
SNB-19 CNS = system: SNB-19 CNS
HL-60(TB) leukemia = system: HL-60(TB) leukemia
SK-OV-3 ovarian = system: SK-OV-3 ovarian
KM12 colon = system: KM12 colon
NCI-H226 lung = system: NCI-H226 lung
UACC-257 melanoma = system: UACC-257 melanoma
HCT-15 colon = system: HCT-15 colon
MALME-3M melanoma = system: MALME-3M melanoma
CAKI-1 renal = system: CAKI-1 renal
BT-549 breast = system: BT-549 breast
RXF 393 renal = system: RXF 393 renal
HT29 colon = system: HT29 colon
UO-31 renal = system: UO-31 renal
LOX IMVI melanoma = system: LOX IMVI melanoma
EKVX NSCLC = system: EKVX NSCLC
MDA-MB-435 = system: MDA-MB-435
786-0 renal = system: 786-0 renal
NCI-H23 lung = system: NCI-H23 lung
SNB-75 CNS = system: SNB-75 CNS
HCC-2998 colon = system: HCC-2998 colon
SK-MEL-2 melanoma = system: SK-MEL-2 melanoma
OVCAR-8 ovarian = system: OVCAR-8 ovarian
COLO 205 colon = system: COLO 205 colon
SF-539 CNS = system: SF-539 CNS
DU-145 prostate = system: DU-145 prostate
MDA-MB-231 breast = system: MDA-MB-231 breast
U251 CNS = system: U251 CNS
NCI/ADR-RES ovarian = system: NCI/ADR-RES ovarian

## O=S1(=O)N(Cc2ccccc2)[C@@H](Cc2ccccc2)C2O[C@H]2[C@H](Cc2ccccc2)N1Cc1ccccc1 (some centres undefined)
A498 renal
  GI50: > 7.5 µM
  TGI: > 7.5 µM
M14 melanoma
  GI50: > 7.5 µM
  TGI: > 7.5 µM
OVCAR-4 ovarian
  GI50: > 7.5 µM
  TGI: > 7.5 µM
OVCAR-3 ovarian
  GI50: 4.03 µM
  TGI: > 7.5 µM
ACHN renal
  GI50: 5.88 µM
  TGI: > 7.5 µM
PC-3 prostate
  GI50: 3.06 µM
  TGI: > 7.5 µM
UACC-62 melanoma
  GI50: 6.75 µM
  TGI: > 7.5 µM
T-47D breast
  GI50: 6.81 µM
  TGI: > 7.5 µM
OVCAR-5 ovarian
  GI50: > 7.5 µM
  TGI: > 7.5 µM
SK-MEL-28 melanoma
  GI50: > 7.5 µM
  TGI: > 7.5 µM
K-562 leukemia
  GI50: 3.34 µM
  TGI: > 7.5 µM
MOLT-4 leukemia
  GI50: 4.12 µM
  TGI: > 7.5 µM
A549 NSCLC
  GI50: 3.78 µM
  TGI: > 7.5 µM
SW-620 colon
  GI50: > 7.5 µM
  TGI: > 7.5 µM
SN12C renal
  GI50: > 7.5 µM
  TGI: > 7.5 µM
HS 578T breast
  GI50: > 7.5 µM
  TGI: > 7.5 µM
IGROV1 ovarian
  GI50: 5.06 µM
  TGI: > 7.5 µM
MCF7 breast
  GI50: 4.27 µM
  TGI: > 7.5 µM
HCT-116 colon
  GI50: 0.844 µM
  TGI: > 7.5 µM
HOP-62 NSCLC
  GI50: > 7.5 µM
  TGI: > 7.5 µM
NCI-H522 lung
  GI50: 1.83 µM
  TGI: > 7.5 µM
HOP-92 NSCLC
  GI50: > 7.5 µM
  TGI: > 7.5 µM
NCI-H460 lung
  GI50: 2.53 µM
  TGI: > 7.5 µM
SK-MEL-5 melanoma
  GI50: 1.79 µM
  TGI: > 7.5 µM
TK-10 renal
  GI50: 3.9 µM
  TGI: > 7.5 µM
SF-268 CNS
  GI50: 6.08 µM
  TGI: > 7.5 µM
SF-295 CNS
  GI50: 1.8 µM
  TGI: > 7.5 µM
CCRF-CEM leukemia
  GI50: > 7.5 µM
  TGI: > 7.5 µM
RPMI-8226 leukemia
  GI50: 4.92 µM
  TGI: > 7.5 µM
SNB-19 CNS
  GI50: > 7.5 µM
  TGI: > 7.5 µM
HL-60(TB) leukemia
  GI50: 4.75 µM
  TGI: > 7.5 µM
SK-OV-3 ovarian
  GI50: > 7.5 µM
  TGI: > 7.5 µM
KM12 colon
  GI50: 7.19 µM
  TGI: > 7.5 µM
NCI-H226 lung
  GI50: > 7.5 µM
  TGI: > 7.5 µM
UACC-257 melanoma
  GI50: 2.89 µM
  TGI: > 7.5 µM
HCT-15 colon
  GI50: 3.92 µM
  TGI: > 7.5 µM
MALME-3M melanoma
  GI50: > 7.5 µM
  TGI: > 7.5 µM
CAKI-1 renal
  GI50: 0.949 µM
  TGI: > 7.5 µM
BT-549 breast
  GI50: 4.09 µM
  TGI: > 7.5 µM
RXF 393 renal
  GI50: > 7.5 µM
  TGI: > 7.5 µM
HT29 colon
  GI50: > 7.5 µM
  TGI: > 7.5 µM
UO-31 renal
  GI50: > 7.5 µM
  TGI: > 7.5 µM
LOX IMVI melanoma
  GI50: 5.38 µM
  TGI: > 7.5 µM
EKVX NSCLC
  GI50: 6.55 µM
  TGI: > 7.5 µM
MDA-MB-435
  GI50: > 7.5 µM
  TGI: > 7.5 µM
786-0 renal
  GI50: 5.12 µM
  TGI: > 7.5 µM
NCI-H23 lung
  GI50: 3.47 µM
  TGI: > 7.5 µM
SNB-75 CNS
  GI50: > 7.5 µM
  TGI: > 7.5 µM
HCC-2998 colon
  GI50: > 7.5 µM
  TGI: > 7.5 µM
SK-MEL-2 melanoma
  GI50: > 7.5 µM
  TGI: > 7.5 µM
OVCAR-8 ovarian
  GI50: > 7.5 µM
  TGI: > 7.5 µM
COLO 205 colon
  GI50: > 7.5 µM
  TGI: > 7.5 µM
SF-539 CNS
  GI50: > 7.5 µM
  TGI: > 7.5 µM
DU-145 prostate
  GI50: > 7.5 µM
  TGI: > 7.5 µM
MDA-MB-231 breast
  GI50: > 7.5 µM
  TGI: > 7.5 µM
U251 CNS
  GI50: 1.84 µM
  TGI: > 7.5 µM
NCI/ADR-RES ovarian
  GI50: 5.23 µM
  TGI: > 7.5 µM
